Measured values from patent publication US20100160178A1, “SYSTEM AND METHOD FOR PRESENTING DNA BINDING SPECIFICITIES USING SPECIFICITY LANDSCAPES” (priority 2008, published 2010).

Key:
[1] = test system: duplex DNA microarray that displays the entire sequence space; experiment: CSI (cognate site identifier) array and specificity landscape of the polyamide; format: binding
Source text: (§1) CSI arrays can display the entire sequence space for about 2-10 variable base pair positions. Additionally, CSI arrays can display the entire sequence space for more than 10 base pair positions. Data relating to the binding affinities between the binding molecule and a sample set of DNA sequences (“N-mers”) has been obtained from the CSI DNA microarrays, in which every N-mer sequence is correlated to a fluorescent intensity value. The fluorescent intensity value indicates the amount of interaction between a specific N-mer and the DNA-binding molecule of interest and is proportional to binding affinity. The affinity value is the form of an equilibrium association constant (KA), or a KD value may be converted to KA by the relationship of KA=1/KD. Any biochemical/biophysical technique, other than DNA microarrays, can be used to obtain binding affinities, but these affinities must be related to a specific DNA sequence to be appropriate input for the specificity landscape.
This particular approach is an example of the data input to the specificity landscape algorithm. In particular, the present approach provides a comprehensive and unbiased understanding of the sequence-specificity of DNA binding molecules. Structural DNA variants are all examined to explore the importance of DNA structure on cognate site recognition by these ligands (data not shown). This particular example examines sequences and structural preferences of a small molecule polyamide (ImImPy*Py-γ-PyPyPyPy-β-Dp) designed to recognize the sequence 5′-W-W-G-G-W-W-W-3′ (W=A or T). […] The more distorted, or non-duplex, the DNA becomes the less affinity the polyamide has for that particular DNA sequence. Based upon previous knowledge of this polyamide, the specificity landscape unexpectedly uncovered unique insight into the polyamide relating to sequence and structural specificity of the polyamide-DNA interactions. […] The relative affinity of a particular sequence is represented by the height of the peak. The landscape provides a valuable tool to researchers looking for both the consensus sequences as well as those with the highest affinity.
Each sequence on the array is given a z-score which indicates the probability of a sequence being preferentially bound by the polyamide. As such, each sequence on the array has an intensity denoting the affinity of the polyamide to the sequence. The z-score is calculated using Equation Set 1. The sequences in the highest z-score bins, or with the highest intensities, fit the 5′-W-W-G-G-W-W-W-3′
Z=|intensity−average|/standard deviation Equation Set 1
The cognate site identifier array is a high through put approach for providing a comprehensive profile of the binding properties of DNA-binding molecules. CSI arrays display every permutation of a duplex DNA sequence on a microfabricated array. The CSI is a standard type array where each square (microarray feature) is assigned a specific nucleotide sequence, which includes a linker and a palindromic sequence with a 3-5 nucleotide turn in the middle. This palindromic sequence forms a double-stranded DNA region comprised of, for example, 8 base pairs that represents a specific permutation of an 8mer sequence. The central region of the sequence is buried, by example all or a subset of, 8 base pairs for a given 8-mer sequence. Approximately one million of the same sequences are provided for each square, each being one of the possible 8-mer sequences. A fluorescently labeled compound or antibody is included. […]

DNA sequences = experiment: Specificity landscapes of DNA-binding proteins (FIGS. 8-10); details: circular specificity landscape
[2] = test system: every possible 9-mer DNA sequence; experiment: CSI array and specificity landscape of Nkx-2.5; format: binding
Source text: as §1
The cognate site identifier array is a high through put approach for providing a comprehensive profile of the binding properties of DNA-binding molecules. CSI arrays display every permutation of a duplex DNA sequence on a microfabricated array. […]

ImImPy*Py-γ-PyPyPyPy-β-Dp [polyamide]
base preference at position 5 [1]: prefers a T at position 5
DNA conformer preference ([1]; B-form duplex vs structural DNA variants): prefers double-stranded DNA
affinity across permutations of the consensus motif WWGGWWW ([1]; innermost ring (Ring 1) of landscape): does not bind all the permutations of the consensus motif (WWGGWWW) with equal affinity
positions of the motif where mutations are tolerated ([1]; one mismatch ring): tolerates mutations at positions 1 and 3
binding to non-B-form DNA bearing high affinity sequences ([1]; relative to the duplex): appreciable binding

gata4: mouse protein gata4
DNA sequence bound (DNA sequences): 5′-WGATAA-3′

Nkx-2.5: Nk2 transcription factor related, locus 5; earliest heart lineage marker; mouse DNA-binding protein
DNA binding motif from specificity landscape [2]: TNAAGTG and NTAAGTG
binding of sequences identical to motif TTAAGTG ([2]; relative intensities, all possible 9-mers): bind well

B1: msn2: yeast protein msn2 (protein, UniProt P33748 1-704, looked up)
Zinc finger protein MSN2: MTVDHDFNSEDILFPIESMSSIQYVENNNPNNINNDVIPYSLDIKNTVLDSADLNDIQNQETSLNLGLPPLSFDSPLPVTETIPSTTDNSLHLKADSNKNRDARTIENDSEIKSTNNASGSGANQYTTLTSPYPMNDILYNMNNPLQSPSPSSVPQNPTINPPINTASNETNLSPQTSNGNETLISPRAQQHTSIKDNRLSLPNGANSNLFIDTNPNNLNEKLRNQLNSDTNSYSNSISNSNSNSTGNLNSSYFNSLNIDSMLDDYVSSDLLLNDDDDDTNLSRRRFSDVITNQFPSMTNSRNSISHSLDLWNHPKINPSNRNTNLNITTNSTSSSNASPNTTTMNANADSNIAGNPKNNDATIDNELTQILNEYNMNFNDNLGTSTSGKNKSACPSSFDANAMTKINPSQQLQQQLNRVQHKQLTSSHNNSSTNMKSFNSDLYSRRQRASLPIIDDSLSYDLVNKQDEDPKNDMLPNSNLSSSQQFIKPSMILSDNASVIAKVATTGLSNDMPFLTEEGEQNANSTPNFDLSITQMNMAPLSPASSSSTSLATNHFYHHFPQQGHHTMNSKIGSSLRRRKSAVPLMGTVPLTNQQNNISSSSVNSTGNGAGVTKERRPSYRRKSMTPSRRSSVVIESTKELEEKPFHCHICPKSFKRSEHLKRHVRSVHSNERPFACHICDKKFSRSDNLSQHIKTHKKHGDI
DNA sequence bound (DNA sequences): 5′-ARGGG-3′
